# Measured values reported in patent EP4793271A1, “NEUROPROTECTIVE AGENT” (National Center of Neurology and Psychiatry, priority 2023, dated 2025).
# Tests used:
# [1] = biological target: T1, nicotinamide phosphoribosyl transferase (NAMPT) (Homo sapiens, UniProt P43490); assay: NAMPT activity measurement (NMN fluorescence detection); assay type: biochemical; details: NAMPT recombinant protein; 10 µM Nam
# T1 construct: purchased Medical & Biological Laboratories Co., Ltd. (MBL)
# Method in brief: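 Recombinant NAMPT reacted with 10 µM Nam, 0.5 µM PRPP, 2 µM ATP in Tris pH 7.4 buffer with MgCl2, DTT, BSA; product NMN quantified by fluorescence (ex 421/em 480 nm) after derivatization with 2-acetylbenzofuran. Compounds at 3 nM–10 µM; control-normalized signal used for IC50.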
# [2] = test system: primary cultured cells of mouse fetus-derived dorsal root ganglia (DRGs); assay: Suppression of axonal degeneration after axotomy in DRG explant culture; assay type: cell-based; details: Mus musculus; minimum concentration at which axonal degeneration was suppressed (DI 0.3 or less); 24 hours after axotomy; read-out: Evaluation on protection against degeneration
# Method in brief: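 Embryonic ICR mouse DRG explants were cultured 7–8 days in nicotinamide-free neuronal medium with NGF, then axotomized by removing the cell bodies. Compound (100 pM–10 µM final, 0.1% DMSO) was added within 30 min, and neurites were imaged 24 h later. The result is the lowest concentration giving degeneration index ≤0.3.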
# T1 sequence (P43490 whole entry, species assumed): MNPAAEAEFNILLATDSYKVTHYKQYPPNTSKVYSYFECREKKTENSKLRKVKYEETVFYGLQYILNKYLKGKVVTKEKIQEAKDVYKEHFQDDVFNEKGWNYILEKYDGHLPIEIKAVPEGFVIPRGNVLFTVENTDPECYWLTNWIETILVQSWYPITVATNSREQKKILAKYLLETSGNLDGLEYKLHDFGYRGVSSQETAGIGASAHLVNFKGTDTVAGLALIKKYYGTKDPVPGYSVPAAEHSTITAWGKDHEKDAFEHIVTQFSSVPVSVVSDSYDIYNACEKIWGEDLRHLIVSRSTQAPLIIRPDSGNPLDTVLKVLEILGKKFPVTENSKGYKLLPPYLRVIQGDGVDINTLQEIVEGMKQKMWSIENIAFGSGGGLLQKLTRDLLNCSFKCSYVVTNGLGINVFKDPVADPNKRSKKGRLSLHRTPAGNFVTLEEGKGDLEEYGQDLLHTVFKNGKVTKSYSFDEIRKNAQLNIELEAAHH
SMILES,Evaluation on NAMPT inhibitory [1],minimal effective concentration [2] [µM]
O=C(NCCCOCCOCCCNC(=O)c1cccnc1)c1cccnc1 [compound 35],○,≤ 0.01
CC(C)(C)C(=O)Nc1ccc(CNC(=O)c2cccnc2)cn1 [compound 76],○,≤ 0.01
O=C(NCc1ccc(NC(=O)c2ccccc2)nc1)c1cccnc1 [compound 105],○,≤ 0.01
